How the values were obtained:
[1] = Plasma octreotide level one hour after intravenous administration (radioimmunoassay); assay type: in vivo, human; settings: 50 μg octreotide IV bolus, 13 patients with cirrhosis and portal hypertension
Excerpt: Furthermore, we also studied the relationship between the mag- nitude and duration of response of octreotide on corrected wedged hepatic venous pressure (WHVP) and the circulatinglevels ofthe analogue after intravenous administration. Subcutaneous Administration of Octreotide Six patients (4 males and 2 females), receiving 50tg octreotide s.c. twice daily to prevent recurrent varieceal hemorrhage were studied 4 weeks after commencing treatment with the analogue. These patients were participating in a randomised controlled trial and had already undergone a baseline measurement of corrected wedged hepatic venous pressure (WHVP) prior to being commenced on octreotide (50 tg.sc.bd). […] One patient had severe (Child's C), 2 moderate (Child's B) and 3 mild (Child's A) liver dys- function. Following an overnight fast, blood samples were removed immediately prior to a subcutaneous injection of 50tg octreotide and then at 2 hourly intervals for the following 12 h. The blood samples were collected in hepari- nised bottles containing Trasylol, centrifuged at 0C, the plasma snap frozen and stored at -20C for subsequent analysis of the octreo- tide levels. […] Thirteen patient with cirrhosis and portal hy- pertension admitted for a thorough investigation of the etiology and severity of their liver disease underwent measurements of their corrected wedged hepatic venous pressure (WHVP). […]

[2] = normal healthy volunteers; cited from earlier work
[3] = Pharmacokinetics of octreotide after subcutaneous injection (plasma radioimmunoassay); settings: for AUC: AUC 2-12 h; for Cmax: 50 μg, Plasma octreotide levels, Peak;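 for all read-outs here: cirrhotic patients on twice-daily subcutaneous dosing for prevention of recurrent variceal bleeding, sampled four weeks into treatment, octreotide measured in plasma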
Excerpt: Furthermore, we also studied the relationship between the mag- nitude and duration of response of octreotide on corrected wedged hepatic venous pressure (WHVP) and the circulatinglevels ofthe analogue after intravenous administration. Subcutaneous Administration of Octreotide Six patients (4 males and 2 females), receiving 50tg octreotide s.c. twice daily to prevent recurrent varieceal hemorrhage were studied 4 weeks after commencing treatment with the analogue. These patients were participating in a randomised controlled trial and had already undergone a baseline measurement of corrected wedged hepatic venous pressure (WHVP) prior to being commenced on octreotide (50 tg.sc.bd). […] One patient had severe (Child's C), 2 moderate (Child's B) and 3 mild (Child's A) liver dys- function. Following an overnight fast, blood samples were removed immediately prior to a subcutaneous injection of 50tg octreotide and then at 2 hourly intervals for the following 12 h. The blood samples were collected in hepari- nised bottles containing Trasylol, centrifuged at 0C, the plasma snap frozen and stored at -20C for subsequent analysis of the octreo- tide levels. […] Thirteen patient with cirrhosis and portal hy- pertension admitted for a thorough investigation of the etiology and severity of their liver disease underwent measurements of their corrected wedged hepatic venous pressure (WHVP). […] A 7F occlusion ballon Sidewinder catheter (Cordis Corporation, Miami, USA) was guided into a hepatic vein under fluoroscopic control. […] The right femoral artery was cannu- lated with a 7F Cordis cannula via a 8F Cordis introducer.

[4] = Patient 1, Child's grade A, 50 μg s.c.
[5] = Patient 2, Child's grade A, 50 μg s.c.
[6] = Patient 3, Child's grade A, 50 μg s.c.
[7] = Patient 4, Child's grade B, 50 μg s.c.
[8] = Patient 5, Child's grade B, 50 μg s.c.
[9] = Patient 6, Child's grade C, 50 μg s.c.

For `C[C@@H](O)[C@@H]1NC(=O)[C@H](CCCCN)NC(=O)[C@@H](Cc2c[nH]c3ccccc23)NC(=O)[C@H](Cc2ccccc2)NC(=O)[C@@H](NC(=O)[C@H](N)Cc2ccccc2)CSSC[C@@H](C(=O)N[C@H](CO)[C@@H](C)O)NC1=O` [octreotide], the “plasma octreotide level 1 h after administration” value [1] is given as 1944 pg/mL, the level at 1 h ([1]; human, plasma, 50 ug) is given as 1.94 ± 0.226 ng/mL and the hepatic excretion [2] is given as 30-40%. For the same compound, the “clearance, overall” value ([3]; 50 μg s.c., six patients, mean ± SD) was 3.04 L/h, the Clearance [3, 4] was 4.775 L/h and the K [3, 4] was 0.271 h⁻¹. For the same compound, the Volume of distribution [3, 4] was 17.62 L, the Clearance [3, 5] was 2.892 L/h and the K [3, 5] was 0.251 h⁻¹. It also gave a Volume of distribution [3, 5] of 11.51 L, a Clearance [3, 6] of 3.021 L/h and a K [3, 6] of 0.288 h⁻¹. For the same compound, the Volume of distribution [3, 6] was 10.47 L, the Clearance [3, 7] was 2.765 L/h and the K [3, 7] was 0.172 h⁻¹. It also gave a Volume of distribution [3, 7] of 16.07 L, a Clearance [3, 8] of 2.704 L/h and a K [3, 8] of 0.172 h⁻¹. The Volume of distribution [3, 8] was 15.77 L, the Clearance [3, 9] was 2.101 L/h and the K [3, 9] was 0.142 h⁻¹. For the same compound, the Volume of distribution [3, 9] was 14.82 L, the Tmax ([3]; both, human, plasma, sc, 50 ug) was 2 h and the half-life ([3]; both, human, plasma, sc, 50 ug, circulating (plasma) half life, range, 50 μg octreotide s.c., range over 6 patients with cirrhosis and portal hypertension) was 2.4 to 4.79 h. It also gave a half-life ([3]; both, human, plasma, sc, 50 ug, plasma half-life, overall, 50 μg s.c., six patients, mean ± SD) of 3.44 h, an AUC ([3]; human, plasma, sc, 50 ug, Patient 1, Child's grade A, 50 μg s.c.) of 0.0105 µg·h/mL and an AUC ([3]; human, plasma, sc, 50 ug, Patient 2, Child's grade A, 50 μg s.c.) of 0.0172 µg·h/mL. It also gave an AUC ([3]; human, plasma, sc, 50 ug, Patient 3, Child's grade A, 50 μg s.c.) of 0.0166 µg·h/mL, an AUC ([3]; human, plasma, sc, 50 ug, Patient 4, Child's grade B, 50 μg s.c.) of 0.0181 µg·h/mL and an AUC ([3]; human, plasma, sc, 50 ug, Patient 5, Child's grade B, 50 μg s.c.) of 0.0185 µg·h/mL. It also gave an AUC ([3]; human, plasma, sc, 50 ug, Patient 6, Child's grade C, 50 μg s.c.) of 0.0238 µg·h/mL, a Cmax ([3]; human, plasma, sc, Patient 1, Child's grade A, 50 μg s.c.) of 2.59 ng/mL and a Cmax ([3]; human, plasma, sc, Patient 2, Child's grade A, 50 μg s.c.) of 2.2 ng/mL. It also gave a Cmax ([3]; human, plasma, sc, Patient 3, Child's grade A, 50 μg s.c.) of 2.09 ng/mL, a Cmax ([3]; human, plasma, sc, Patient 4, Child's grade B, 50 μg s.c.) of 2.94 ng/mL and a Cmax ([3]; human, plasma, sc, Patient 5, Child's grade B, 50 μg s.c.) of 3.28 ng/mL. The Cmax ([3]; human, plasma, sc, Patient 6, Child's grade C, 50 μg s.c.) was 3.51 ng/mL, the half-life ([3]; human, plasma, sc, 50 ug, t1/2, Patient 1, Child's grade A, 50 μg s.c.) was 2.4 h and the half-life ([3]; human, plasma, sc, 50 ug, t1/2, Patient 2, Child's grade A, 50 μg s.c.) was 2.76 h. For the same compound, the half-life ([3]; human, plasma, sc, 50 ug, t1/2, Patient 3, Child's grade A, 50 μg s.c.) was 2.56 h, the half-life ([3]; human, plasma, sc, 50 ug, t1/2, Patient 4, Child's grade B, 50 μg s.c.) was 4.03 h and the half-life ([3]; human, plasma, sc, 50 ug, t1/2, Patient 5, Child's grade B, 50 μg s.c.) was 4.04 h. For the same compound, the half-life ([3]; human, plasma, sc, 50 ug, t1/2, Patient 6, Child's grade C, 50 μg s.c.) was 4.89 h.

Reference: PMC2423925, “Pharmacokinetics of Octreotide in Patients With Cirrhosis and Portal Hypertension; Relationship Between the Plasma Levels of the Analogue and the Magnitude and Duration of the Reduction in Corrected Wedged Hepatic Venous Pressure” (HPB Surgery, 1998)
